Source: PMC4991342 (Virulence, 2016)
pIC50: −log10 of the molar value.

Columns and labels:
[1] = system: mouse lymphoma L5178Y/TK^+/− cells (clone 3.7.2C); experiment: In vitro mammalian cell gene mutation test; assay type: cell-based; conditions: 4 h without S9-mix
[2] = system: acute urinary tract infections; conditions: 70 patients with acute urinary tract infections; no details published; cited from earlier work
[3] = molecular target: recombinant P. falciparum DXP reductoisomerase; conditions: read-out: IC50 for recombinant P. falciparum DXP reductoisomerase; cited from earlier work
P. falciparum malaria = conditions: oral monotherapy; clinical phase II; cited from earlier work

COS(C)(=O)=O [MMS, methyl methanesulfonate]
MF (mutant frequency) ([1]; MMS 10 µg/ml (positive control), relevant increase): 475.5 × 10^−6 | mean MF compared to the negative controls ([1]; MMS 10 µg/ml): 626%

O=CN(O)CCCP(=O)(O)O [fosmidomycin]
antibacterial efficacy [2]: strong antibacterial efficacy | pIC50 [3]: 7.49 | recrudescence (P. falciparum malaria): high rate of recrudescent infections
